Test results as given in US20240368096A1 (Enanta Pharmaceuticals, Inc., priority 2022, published 2024).
Like-named read-outs stand apart in the source and are kept apart here.

Experiments:
[1] = target: T1, NTCP (Homo sapiens, UniProt Q14973); experiment: HepG2-NTCP preS1 binding competition assay (FITC-labeled myristoylated preS1 peptide); conditions: HepG2-NTCP cells; competition with FITC-labeled preS1 peptide
T1 construct: expressed in transfected cells; host or cells: HepG2-NTCP (clone A3, kept under puromycin)
T1 sequence (Q14973 1-349): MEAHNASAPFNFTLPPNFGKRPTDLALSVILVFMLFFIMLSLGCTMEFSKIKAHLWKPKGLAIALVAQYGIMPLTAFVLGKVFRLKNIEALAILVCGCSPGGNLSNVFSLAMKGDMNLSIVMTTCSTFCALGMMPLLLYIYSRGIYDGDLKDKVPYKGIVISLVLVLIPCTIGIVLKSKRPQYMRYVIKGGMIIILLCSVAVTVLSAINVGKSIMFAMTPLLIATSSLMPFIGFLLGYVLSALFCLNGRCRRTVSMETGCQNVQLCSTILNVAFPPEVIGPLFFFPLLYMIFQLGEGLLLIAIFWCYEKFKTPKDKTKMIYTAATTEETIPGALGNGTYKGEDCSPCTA
Method: HepG2-NTCP preS1 Binding Competition Assay
Myristoylated preS1 peptide (2-48 aa) conjugated to a C-terminal FITC tag was synthesized to evaluate preS1 binding to NTCP-expressing cells. HepG2-NTCP cells seeded in 384-wells were pre-treated with compounds for 2 hours prior to the addition of FITC-labeled preS1 peptide. After co-incubation for 30 minutes, unbound FITC-preS1 peptide was washed twice with PBS, and the fluorescence of preS1-FITC bound to cell surface was detected by Envision plate reader. EC50 ranges are as follows: A<0.1 μM; B 0.1-1 μM; C>1 μM.

[2] = test system: HBV; experiment: HBV infection in HepG2-NTCP cells (HBeAg AlphaLISA in supernatants); type: cell-based; conditions: Hepatitis B virus, 192 h
Procedure, shortened: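 Readout was day-8 supernatant HBeAg by AlphaLISA, with EC50 set against DMSO controls and binned A<0.1 μM, B 0.1-1 μM, C>1 μM. Compounds were added 2 h before HBV (2000 GE/cell, 4% PEG, 0.5% DMSO) to HepG2-NTCP A3 cells; from day 1 medium held 2.5% DMSO.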

[3] = HBV infection of HepG2-NTCP cells, HBeAg in supernatants at day 8 post infection, read-out: Cellular EC50

EC50 [1]	EC50 [2, 3]	Structure (SMILES)	EC50 ([2]; read-out: Cellular EC50 (μM))
< 100 nM	< 0.1 µM	CN1[C@H](C2CCCCC2)CN(c2ccccc2)c2cc(Cl)c(N3CCC(F)(C(=O)O)C3)cc2S1(=O)=O (mixture of isomers) [Example 609, 1-((R)-7-chloro-3-cyclohexyl-2-methyl-1,1-dioxido-5-phenyl-2,3,4,5-tetrahydrobenzo[f][1,2,5]thiadiazepin-8-yl)-3-fluoropyrrolidine-3-carboxylic acid]	
100 to 1000 nM	0.1 to 1 µM	CN1[C@H](C2CCCCC2)CN(c2ccccc2)c2cc(Cl)c(-c3ccc(N)c(C(=O)O)c3)cc2S1(=O)=O [Example 157, (R)-2-amino-5-(7-chloro-3-cyclohexyl-2-methyl-1,1-dioxido-5-phenyl-2,3,4,5-tetrahydrobenzo[f][1,2,5]thiadiazepin-8-yl)benzoic acid]	
100 to 1000 nM		CN1[C@H](C2CCCCC2)CN(c2ccccc2)c2cc(Cl)c(-c3cc(Cl)c(N)c(C(=O)O)c3)cc2S1(=O)=O [Example 192]	
> 1000 nM		CN1[C@H](C2CCCCC2)CN(c2ccccc2)c2cc(Cl)c(-c3ccc(S(N)(=O)=O)s3)cc2S1(=O)=O [Example 201]	
100 to 1000 nM	0.1 to 1 µM	CC(=O)NS(=O)(=O)c1ccc(-c2cc3c(cc2Cl)N(c2ccccc2)C[C@@H](C2CCCCC2)N(C)S3(=O)=O)s1 [Example 225]	
100 to 1000 nM		CN1[C@H](C2CCCCC2)CN(c2ccccc2)c2cc(Cl)c(-c3ccc(S(=O)(=O)NC(=O)c4ccccc4)s3)cc2S1(=O)=O [Example 226]	
100 to 1000 nM		CC(C)C(=O)NS(=O)(=O)c1ccc(-c2cc3c(cc2Cl)N(c2ccccc2)C[C@@H](C2CCCCC2)N(C)S3(=O)=O)s1 [Example 227]	
< 100 nM	< 0.1 µM	CN1[C@H](C2CCCCC2)CN(c2ccccc2)c2cc(F)c(-c3ccc(NC(=O)OCc4ccccc4)c(C(=O)O)c3)cc2S1(=O)=O [Example 235, (R)-2-(((benzyloxy)carbonyl)amino)-5-(3-cyclohexyl-7-fluoro-2-methyl-1,1-dioxido-5-phenyl-2,3,4,5-tetrahydrobenzo[f][1,2,5]thiadiazepin-8-yl)benzoic acid]	
< 100 nM	< 0.1 µM	COC(C)(C)COC(=O)Nc1cc(-c2cc3c(cc2Cl)N(c2ccccc2)C[C@@H](C2CCCCC2)N(C)S3(=O)=O)sc1C(=O)O [Example 239, (R)-5-(7-chloro-3-cyclohexyl-2-methyl-1,1-dioxido-5-phenyl-2,3,4,5-tetrahydrobenzo[f][1,2,5]thiadiazepin-8-yl)-3-(((2-methoxy-2-methylpropoxy)carbonyl)amino)thiophene-2-carboxylic acid]	
< 100 nM	< 0.1 µM	CCOC(=O)Nc1cc(-c2cc3c(cc2Cl)N(c2ccccc2)C[C@@H](C2CCCCC2)N(C)S3(=O)=O)sc1C(=O)O [Example 240]	
< 100 nM	< 0.1 µM	CC(C)COC(=O)Nc1cc(-c2cc3c(cc2Cl)N(c2ccccc2)C[C@@H](C2CCCCC2)N(C)S3(=O)=O)sc1C(=O)O [Example 241]	
< 100 nM	< 0.1 µM	CN1[C@H](C2CCCCC2)CN(c2ccccc2)c2cc(Cl)c(-c3cc(NC(=O)OCC(F)F)c(C(=O)O)s3)cc2S1(=O)=O [Example 242]	
< 100 nM	< 0.1 µM	CCCCOC(=O)Nc1cc(-c2cc3c(cc2Cl)N(c2ccccc2)C[C@@H](C2CCCCC2)N(C)S3(=O)=O)sc1C(=O)O [Example 246]	
< 100 nM		CN1[C@H](C2CCCCC2)CN(c2ccccc2)c2cc(Cl)c(-c3cc(NC(=O)OCCOC(C)(C)C)c(C(=O)O)s3)cc2S1(=O)=O [Example 262]	
< 100 nM		COCCCOC(=O)Nc1cc(-c2cc3c(cc2Cl)N(c2ccccc2)C[C@@H](C2CCCCC2)N(C)S3(=O)=O)sc1C(=O)O [Example 263]	
< 100 nM		COC1CC(OC(=O)Nc2cc(-c3cc4c(cc3Cl)N(c3ccccc3)C[C@@H](C3CCCCC3)N(C)S4(=O)=O)sc2C(=O)O)C1 (stereo partly drawn) [Example 264]	
< 100 nM	< 0.1 µM	CCCCCCS(=O)(=O)Nc1ccc(-c2cc3c(cc2Cl)N(c2ccccc2)C[C@@H](C2CCCCC2)N(C)S3(=O)=O)cc1C(=O)O [Example 273]	

EC50 [1]	EC50 [2, 3]	Structure (SMILES)	EC50 ([2]; read-out: Cellular EC50 (μM))
< 100 nM	< 0.1 µM	CCCS(=O)(=O)Nc1ccc(-c2cc3c(cc2Cl)N(c2ccccc2)C[C@@H](C2CCCCC2)N(C)S3(=O)=O)cc1C(=O)O [Example 274]	
< 100 nM	< 0.1 µM	CCCS(=O)(=O)Nc1cc(-c2cc3c(cc2Cl)N(c2ccccc2)C[C@@H](C2CCCCC2)N(C)S3(=O)=O)sc1C(=O)O [Example 275, (R)-5-(7-chloro-3-cyclohexyl-2-methyl-1,1-dioxido-5-phenyl-2,3,4,5-tetrahydrobenzo[f][1,2,5]thiadiazepin-8-yl)-3-(propylsulfonamido)thiophene-2-carboxylic acid]	
> 1000 nM		CN(C)C(=O)c1ccc(N2C[C@@H](C3CCCCC3)N(C)S(=O)(=O)c3cc(-c4ccc(F)c(C(=O)O)c4)c(Cl)cc32)cc1 [Example 315]	
< 100 nM	< 0.1 µM	CN1[C@H](C2CCCCC2)CN(c2csc(Cl)c2)c2cc(Cl)c(-c3ccc(F)c(C(=O)O)c3)cc2S1(=O)=O [Example 316, (R)-5-(7-chloro-5-(5-chlorothiophen-3-yl)-3-cyclohexyl-2-methyl-1,1-dioxido-2,3,4,5-tetrahydrobenzo[f][1,2,5]thiadiazepin-8-yl)-2-fluorobenzoic acid]	
100 to 1000 nM	0.1 to 1 µM	CN1[C@H](C2CCCCC2)CN(c2nccs2)c2cc(Cl)c(-c3ccc(F)c(C(=O)O)c3)cc2S1(=O)=O [Example 317]	
100 to 1000 nM	0.1 to 1 µM	CN1[C@H](C2CCCCC2)CN(C2CCOCC2)c2cc(Cl)c(-c3ccc(F)c(C(=O)O)c3)cc2S1(=O)=O [Example 321]	
< 100 nM	< 0.1 µM	CCCCCN1C[C@@H](C2CCCCC2)N(C)S(=O)(=O)c2cc(-c3ccc(F)c(C(=O)O)c3)c(Cl)cc21 [Example 323]	
< 100 nM	< 0.1 µM	CC(C)CN1C[C@@H](C2CCCCC2)N(C)S(=O)(=O)c2cc(-c3ccc(F)c(C(=O)O)c3)c(Cl)cc21 [Example 325]	
< 100 nM	< 0.1 µM	COc1cc2c(cc1-c1ccc(F)c(C(=O)O)c1)S(=O)(=O)N(C)[C@H](C1CCCCC1)CN2c1ccccc1 [Example 348]	
100 to 1000 nM		CN1[C@H](C2CCCCC2)CN(c2ccccc2)c2cc(OC3COC3)c(-c3ccc(F)c(C(=O)O)c3)cc2S1(=O)=O [Example 370]	
< 100 nM	< 0.1 µM	COCCOc1cc2c(cc1-c1ccc(F)c(C(=O)O)c1)S(=O)(=O)N(C)[C@H](C1CCCCC1)CN2c1ccccc1 [Example 388]	
< 100 nM	< 0.1 µM	COCCOc1cc2c(cc1-c1cc(F)c(C(=O)O)s1)S(=O)(=O)N(C)[C@H](C1CCCCC1)CN2c1ccccc1 [Example 486]	
100 to 1000 nM		CN1[C@H](C2CCCCC2)CN(c2ccccc2)c2cc(O[C@H]3C[C@H](O)C3)c(-c3cc(F)c(C(=O)O)s3)cc2S1(=O)=O [Example 503]	
	> 1 µM	CN1[C@H](C2CCCCC2)CN(c2ccccc2)c2cc(Cl)c([C@H]3C[C@@H](C(=O)O)C3)cc2S1(=O)=O [Example 607, (1S,3s)-3-((R)-7-chloro-3-cyclohexyl-2-methyl-1,1-dioxido-5-phenyl-2,3,4,5-tetrahydrobenzo[f][1,2,5]thiadiazepin-8-yl)cyclobutane-1-carboxylic acid]	
100 to 1000 nM		CN1[C@H](C2CCCCC2)CN(c2ccccc2)c2cc(Cl)c(N3CC[C@@H](C(=O)O)C3)cc2S1(=O)=O [Example 610]	
100 to 1000 nM		CN1[C@H](C2CCCCC2)CN(c2ccccc2)c2cc(Cl)c(N3CC[C@H](C(=O)O)C3)cc2S1(=O)=O [Example 611]	

Structure (SMILES)	EC50 [1]	EC50 [2, 3]	EC50 ([2]; read-out: Cellular EC50 (μM))
COc1ccccc1N1C[C@@H](C2CCCCC2)N(C)S(=O)(=O)c2cc(-c3ccc(F)c(C(=O)O)c3)c(Cl)cc21 [Example 304, (R)-5-(7-chloro-3-cyclohexyl-5-(2-methoxyphenyl)-2-methyl-1,1-dioxido-2,3,4,5-tetrahydrobenzo[f][1,2,5]thiadiazepin-8-yl)-2-fluorobenzoic acid]	> 1000 nM		> 1 µM
CCOc1ccccc1N1C[C@@H](C2CCCCC2)N(C)S(=O)(=O)c2cc(-c3ccc(F)c(C(=O)O)c3)c(Cl)cc21 [Example 307]	> 1000 nM		> 1 µM
CN1[C@H](C2CCCCC2)CN(c2ncco2)c2cc(Cl)c(-c3ccc(F)c(C(=O)O)c3)cc2S1(=O)=O [Example 318]	> 1000 nM		> 1 µM
CN1[C@H](C2CCCCC2)CN(CC2COC2)c2cc(Cl)c(-c3ccc(F)c(C(=O)O)c3)cc2S1(=O)=O [Example 320]	> 1000 nM		> 1 µM
CN1[C@H](C2CCCCC2)CN(c2ccccc2)c2cc(OCc3c[nH]cn3)c(-c3ccc(F)c(C(=O)O)c3)cc2S1(=O)=O [Example 391]	> 1000 nM		> 1 µM
